Data: patent US20170232083A1, “METHODS OF DIAGNOSIS AND TREATMENT OF CELIAC DISEASE IN CHILDREN” (priority 2014, published 2017)

System: PBMC (polyclonal gluten-specific T cells) of paediatric and adult CD patients
Assay: IFN-γ ELISpot of PBMC after 3 day oral wheat challenge (SFU, % of maximal peptide response, dominance scores, EC50; Examples 5-6)
Format: cell-based, human
Settings: for Cross-reactive T cell response: following wheat challenge; for IFN-γ ELISpot response: after oral wheat challenge
[1] = subject I (3-5yrs/6-10yrs part)
[2] = subject J (3-5yrs/6-10yrs part)
[3] = subject K (3-5yrs/6-10yrs part)
[4] = subject V (3-5yrs/6-10yrs part)
[5] = subject W (3-5yrs/6-10yrs part)
[6] = subject Y (3-5yrs/6-10yrs part)
[7] = subject five (3-5yrs/6-10yrs part)
[8] = subject seven (3-5yrs/6-10yrs part)
[9] = subject six (3-5yrs/6-10yrs part)
[10] = subject ten (3-5yrs/6-10yrs part)
[11] = subject two (3-5yrs/6-10yrs part)

QPEQPFPLQPEQPVP
Cross-reactive T cell response (subject A, 11-17yrs): 1 SFU | Cross-reactive T cell response (subject D, 11-17yrs): 0 SFU | Cross-reactive T cell response (subject E, 11-17yrs): 9 SFU | Significant response as a percentage of maximal peptide SFU (subject F, 11-17yrs): ′ (11-20% = ′) | Cross-reactive T cell response (subject F, 11-17yrs): 27 SFU | Cross-reactive T cell response (subject G, 11-17yrs): 2 SFU | Cross-reactive T cell response (subject H): 3 SFU | Cross-reactive T cell response [1]: 1 SFU | Significant response as a percentage of maximal peptide SFU (subject J): (6-10% - ^) | Cross-reactive T cell response [2]: 11 SFU | Cross-reactive T cell response [3]: 8 SFU | Cross-reactive T cell response (subject P, 11-17yrs): 12 SFU | Significant response as a percentage of maximal peptide SFU (subject Q, 11-17yrs): ′′ (21-40% = ′′) | Cross-reactive T cell response (subject Q, 11-17yrs): 20 SFU | Significant response as a percentage of maximal peptide SFU (subject T, 11-17yrs): ′ (11-20% = ′) | Cross-reactive T cell response (subject T, 11-17yrs): 16 SFU | Cross-reactive T cell response (subject U, 11-17yrs): 9 SFU | Cross-reactive T cell response [4]: 4 SFU | Cross-reactive T cell response [5]: 4 SFU | Cross-reactive T cell response [6]: 1 SFU | Cross-reactive T cell response [7]: 3 SFU | Cross-reactive T cell response (subject nine, 11-17yrs): 0 SFU | Significant response as a percentage of maximal peptide SFU (subject seven): + (>70% = +) | Cross-reactive T cell response [8]: 19 SFU | Cross-reactive T cell response [9]: 2 SFU | Cross-reactive T cell response [10]: 8 SFU | Cross-reactive T cell response [11]: 6 SFU

QPFPQPEQQLPLQ
Cross-reactive T cell response (subject A, 11-17yrs): 1 SFU | Cross-reactive T cell response (subject D, 11-17yrs): 5 SFU | Significant response as a percentage of maximal peptide SFU (subject E, 11-17yrs): ′ (11-20% = ′) | Cross-reactive T cell response (subject E, 11-17yrs): 30 SFU | Cross-reactive T cell response (subject F, 11-17yrs): 5 SFU | Cross-reactive T cell response (subject G, 11-17yrs): 1 SFU | Cross-reactive T cell response (subject H): 1 SFU | Cross-reactive T cell response [1]: 3 SFU | Significant response as a percentage of maximal peptide SFU (subject J): ′′′ (41-70% = ′′′) | Cross-reactive T cell response [2]: 79 SFU | Cross-reactive T cell response [3]: 9 SFU | Cross-reactive T cell response (subject P, 11-17yrs): 11 SFU | Significant response as a percentage of maximal peptide SFU (subject Q, 11-17yrs): ′ (11-20% = ′) | Cross-reactive T cell response (subject Q, 11-17yrs): 11 SFU | Significant response as a percentage of maximal peptide SFU (subject T, 11-17yrs): ′′ (21-40% = ′′) | Cross-reactive T cell response (subject T, 11-17yrs): 27 SFU | Cross-reactive T cell response (subject U, 11-17yrs): 4 SFU | Cross-reactive T cell response [4]: 3 SFU | Cross-reactive T cell response [5]: 3 SFU | Cross-reactive T cell response [6]: 5 SFU | Significant response as a percentage of maximal peptide SFU (subject five): ′′ (21-40% = ′′) | Cross-reactive T cell response [7]: 11 SFU | Cross-reactive T cell response (subject nine, 11-17yrs): 3 SFU | Cross-reactive T cell response [8]: 11 SFU | Significant response as a percentage of maximal peptide SFU (subject six): + (>70% = +) | Cross-reactive T cell response [9]: 11 SFU | Cross-reactive T cell response [10]: 6 SFU | Cross-reactive T cell response [11]: 2 SFU

QPFPQPEQPFPQS
Cross-reactive T cell response (subject A, 11-17yrs): 4 SFU | Significant response as a percentage of maximal peptide SFU (subject D, 11-17yrs): ′′′ (41-70% = ′′′) | Cross-reactive T cell response (subject D, 11-17yrs): 15 SFU | Significant response as a percentage of maximal peptide SFU (subject E, 11-17yrs): ′′ (21-40% = ′′) | Cross-reactive T cell response (subject E, 11-17yrs): 46 SFU | Significant response as a percentage of maximal peptide SFU (subject F, 11-17yrs): ′ (11-20% = ′) | Cross-reactive T cell response (subject F, 11-17yrs): 35 SFU | Cross-reactive T cell response (subject G, 11-17yrs): 5 SFU | Cross-reactive T cell response (subject H): 4 SFU | Cross-reactive T cell response [1]: 2 SFU | Significant response as a percentage of maximal peptide SFU (subject J): ′′ (21-40% = ′′) | Cross-reactive T cell response [2]: 57 SFU | Significant response as a percentage of maximal peptide SFU (subject K): ′′ (21-40% = ′′) | Cross-reactive T cell response [3]: 18 SFU | Cross-reactive T cell response (subject P, 11-17yrs): 13 SFU | Significant response as a percentage of maximal peptide SFU (subject Q, 11-17yrs): ′′′ (41-70% = ′′′) | Cross-reactive T cell response (subject Q, 11-17yrs): 55 SFU | Significant response as a percentage of maximal peptide SFU (subject T, 11-17yrs): + (>70% = +) | Cross-reactive T cell response (subject T, 11-17yrs): 70 SFU | Significant response as a percentage of maximal peptide SFU (subject U, 11-17yrs): ′′ (21-40% = ′′) | Cross-reactive T cell response (subject U, 11-17yrs): 27 SFU | Significant response as a percentage of maximal peptide SFU (subject V): + (>70% = +) | Cross-reactive T cell response [4]: 25 SFU | Cross-reactive T cell response [5]: 6 SFU | Cross-reactive T cell response [6]: 4 SFU | Significant response as a percentage of maximal peptide SFU (subject five): ′′′ (41-70% = ′′′) | Cross-reactive T cell response [7]: 32 SFU | Cross-reactive T cell response (subject nine, 11-17yrs): 1 SFU | Significant response as a percentage of maximal peptide SFU (subject seven): ′′′ (41-70% = ′′′) | Cross-reactive T cell response [8]: 11 SFU | Cross-reactive T cell response [9]: 7 SFU | Significant response as a percentage of maximal peptide SFU (subject ten): + (>70% = +) | Cross-reactive T cell response [10]: 12 SFU | Significant response as a percentage of maximal peptide SFU (subject two): ′′′ (41-70% = ′′′) | Cross-reactive T cell response [11]: 44 SFU

LQPFPQPQLPYPQP
IFN-γ ELISpot response (patient A, 11-17 yrs, cut-off 10 SFU): 1 SFU | Significant response as percentage of maximal peptide SFU (patient D, max peptide 30.5 SFU): ′′ (21-40% = ′′) | IFN-γ ELISpot response (patient E, H, 11-17 yrs, cut-off 10 SFU): 86 SFU | Significant response as percentage of maximal peptide SFU (patient E, max peptide 224 SFU): ′′ (21-40% = ′′) | IFN-γ ELISpot response (patient F, 11-17 yrs, cut-off 10 SFU): 64 SFU | Significant response as percentage of maximal peptide SFU (patient F, max peptide 178 SFU): ′′ (21-40% = ′′) | IFN-γ ELISpot response (patient G, 11-17 yrs, cut-off 10 SFU): 3 SFU | IFN-γ ELISpot response (patient H (HLA-DQ2.5 homozygote), 3-5yrs, cut-off 10 SFU): 22 SFU | IFN-γ ELISpot response (patient H, 11-17 yrs, cut-off 10 SFU): 14 SFU | Significant response as percentage of maximal peptide SFU (patient H, max peptide 17 SFU): + (>70% = +) | IFN-γ ELISpot response (patient ID not given, 11-17 yrs, cut-off 10 SFU): 51 SFU | Significant response as percentage of maximal peptide SFU (patient ID not given, max peptide 95 SFU): ′′′ (41-70% = ′′′) | Significant response as percentage of maximal peptide SFU (patient II, max peptide 15 SFU): + (>70% = +) | Significant response as percentage of maximal peptide SFU (patient J, max peptide 196 SFU): ′′′ (41-70% = ′′′) | Significant response as percentage of maximal peptide SFU (patient K, max peptide 53 SFU): ′ (11-20% = ′) | Significant response as percentage of maximal peptide SFU (patient M, max peptide 48 SFU): ′′′ (41-70% = ′′′) | IFN-γ ELISpot response (patient N, 3-5yrs, cut-off 10 SFU): 4 SFU | IFN-γ ELISpot response (patient P, 11-17 yrs, cut-off 21.6 SFU): 25 SFU | Significant response as percentage of maximal peptide SFU (patient P, max peptide 64 SFU): ′′ (21-40% = ′′) | IFN-γ ELISpot response (patient Q, 11-17 yrs, cut-off 10 SFU): 38 SFU | Significant response as percentage of maximal peptide SFU (patient Q, max peptide 97 SFU): ′′ (21-40% = ′′) | IFN-γ ELISpot response (patient U, H, 11-17 yrs, cut-off 10 SFU): 35 SFU | IFN-γ ELISpot response (patient V, 6-10 yrs, cut-off 10 SFU): 10 SFU | Significant response as percentage of maximal peptide SFU (patient V, max peptide 35 SFU): ′′ (21-40% = ′′) | IFN-γ ELISpot response (patient Y, 6-10 yrs, cut-off 10 SFU): 14 SFU | Significant response as percentage of maximal peptide SFU (patient Y, max peptide 16 SFU): + (>70% = +) | IFN-γ ELISpot response (patient eleven, 6-10 yrs, cut-off 10 SFU): 29 SFU | Significant response as percentage of maximal peptide SFU (patient eleven, max peptide 57 SFU): ′′′ (41-70% = ′′′) | Significant response as percentage of maximal peptide SFU (patient five, max peptide 48 SFU): ′′′ (41-70% = ′′′) | IFN-γ ELISpot response (patient four, 3-5yrs, cut-off 10 SFU): 17 SFU | Significant response as percentage of maximal peptide SFU (patient four, max peptide 44 SFU): ′′ (21-40% = ′′) | IFN-γ ELISpot response (patient seven, 6-10 yrs, cut-off 10.5 SFU): 5 SFU | IFN-γ ELISpot response (patient ten, 3-5yrs, cut-off 10 SFU): 5 SFU | IFN-γ ELISpot response (patient three, 6-10 yrs, cut-off 10.5 SFU): 93 SFU | IFN-γ ELISpot response (patient twelve, 11-17 yrs, cut-off 10 SFU): 10 SFU | IFN-γ ELISpot response (patient two, 3-5yrs, cut-off 10 SFU): 21 SFU | Significant response as percentage of maximal peptide SFU (patient two, max peptide 60 SFU): ′′ (21-40% = ′′)

QPFPQPEQPIPQQ
Cross-reactive T cell response (subject A, 11-17yrs): 3 SFU | Significant response as a percentage of maximal peptide SFU (subject D, 11-17yrs): + (>70% = +) | Cross-reactive T cell response (subject D, 11-17yrs): 29 SFU | Significant response as a percentage of maximal peptide SFU (subject E, 11-17yrs): ′′ (21-40% = ′′) | Cross-reactive T cell response (subject E, 11-17yrs): 87 SFU | Significant response as a percentage of maximal peptide SFU (subject F, 11-17yrs): ′′ (21-40% = ′′) | Cross-reactive T cell response (subject F, 11-17yrs): 62 SFU | Cross-reactive T cell response (subject G, 11-17yrs): 4 SFU | Cross-reactive T cell response (subject H): 1 SFU | Cross-reactive T cell response [1]: 3 SFU | Significant response as a percentage of maximal peptide SFU (subject J): ′′′ (41-70% = ′′′) | Cross-reactive T cell response [2]: 132 SFU | Significant response as a percentage of maximal peptide SFU (subject K): ′ (11-20% = ′) | Cross-reactive T cell response [3]: 11 SFU | Significant response as a percentage of maximal peptide SFU (subject P, 11-17yrs): + (>70% = +) | Cross-reactive T cell response (subject P, 11-17yrs): 48 SFU | Significant response as a percentage of maximal peptide SFU (subject Q, 11-17yrs): ′′′ (41-70% = ′′′) | Cross-reactive T cell response (subject Q, 11-17yrs): 64 SFU | Significant response as a percentage of maximal peptide SFU (subject T, 11-17yrs): + (>70% = +) | Cross-reactive T cell response (subject T, 11-17yrs): 87 SFU | Significant response as a percentage of maximal peptide SFU (subject U, 11-17yrs): ′′′ (41-70% = ′′′) | Cross-reactive T cell response (subject U, 11-17yrs): 41 SFU | Significant response as a percentage of maximal peptide SFU (subject V): ′′′ (41-70% = ′′′) | Cross-reactive T cell response [4]: 17 SFU | Cross-reactive T cell response [5]: 5 SFU | Cross-reactive T cell response [6]: 7 SFU | Significant response as a percentage of maximal peptide SFU (subject five): + (>70% = +) | Cross-reactive T cell response [7]: 44 SFU | Cross-reactive T cell response (subject nine, 11-17yrs): 1 SFU | Cross-reactive T cell response [8]: 7 SFU | Significant response as a percentage of maximal peptide SFU (subject six): + (>70% = +) | Cross-reactive T cell response [9]: 12 SFU | Cross-reactive T cell response [10]: 4 SFU | Significant response as a percentage of maximal peptide SFU (subject two): ′′ (21-40% = ′′) | Cross-reactive T cell response [11]: 24 SFU
